In patent US10023592B2, “Bromodomain inhibitors” (Celgene Quanticel Research, Inc., priority 2013, dated 2018):

Assays:
BRD4(BD1) = BRD4(BD1) (Homo sapiens (Human), UniProt O60885); assay: In vitro enzyme inhibition assay (BRD4 AlphaScreen); type: binding
Summary of the method: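 AlphaScreen proximity readout, using streptavidin donor and Ni-chelate acceptor beads at 5 μg/mL final, monitors biotin-H4 tetraacetylated peptide interaction with purified His-tagged BRD4.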

[1] = test system: Raji, human Burkitts lymphoma cells; assay: Cell-MTS proliferation assay, Raji; type: cell-based; conditions: Homo sapiens, 168 hr
Summary of the method: (§1)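 Cells were seeded per 96-well at densities giving ~90% confluence by day 7 (Raji 15,000, HL-60 5,000, NCI-H460 3,000) and dosed 24 hr later with an 11-point dilution, 100 μM to 2.0 nM final. Seven-day MTS colorimetric read at OD490; IC50 from background-subtracted, DMSO-normalised values.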

[2] = test system: HL-60, human proleukemia cells; assay: Cell-MTS proliferation assay, HL-60; type: cell-based; conditions: Homo sapiens, 168 hr
Summary of the method: as §1

[3] = test system: NCI-H460, human non-small cell lung cancer cells; assay: Cell-MTS proliferation assay, NCI-H460; type: cell-based; conditions: Homo sapiens, 168 hr
Summary of the method: as §1

[4] = in vitro enzyme inhibition assay
[5] = Cell-MTS proliferation, Raji cells
[6] = Cell-MTS proliferation, HL-60 cells
[7] = Cell-MTS proliferation, NCI-H460 cells
[8] = NCI-H460, Cell-MTS proliferation
[9] = Raji, Cell-MTS, class symbols A/B/C
[10] = HL-60, Cell-MTS, class symbols A/B/C
[11] = NCI-H460, Cell-MTS, class symbols A/B/C

Question: Which IC50 (BRD4(BD1); [4]) does the source give for `Cc1cc(-c2cc(CS(C)(=O)=O)ccc2Oc2ccc(F)cc2F)cn(C)c1=O` [Example 455, 5-[2-(2,4-difluorophenoxy)-5-(methylsulfonylmethyl)phenyl]-1,3-dimethylpyridin-2-one] here?
Answer: < 500 nM

Question: What about the IC50 [1, 5] of the same compound?
Answer: < 500 nM

Question: And the IC50 [2, 6]?
Answer: < 500 nM

Question: And the IC50 [3, 7]?
Answer: > 5000 nM

Question: What does the source list for `Cn1cc(-c2cc(CS(C)(=O)=O)ccc2OCC(F)(F)F)n2cncc2c1=O` [Example 370, 7-methyl-5-[5-(methylsulfonylmethyl)-2-(2,2,2-trifluoroethoxy)phenyl] imidazo[1,5-a]pyrazin-8-one]?
Answer: IC50 (BRD4(BD1); [4]): < 500 nM; IC50 ([1]; Raji, Cell-MTS proliferation): 500 to 5000 nM; IC50 ([2]; HL-60, Cell-MTS proliferation): 500 to 5000 nM; IC50 [3, 8]: > 5000 nM

Question: Which IC50 (BRD4(BD1); [4]) does the source give for `CCS(=O)(=O)Nc1ncc(Oc2ccc(F)cc2F)c(-c2cn(C)c(=O)c3c2CCCC3)n1` [Example 173, N-[5-(2,4-difluorophenoxy)-4-(2-methyl-1-oxo-5,6,7,8-tetrahydroisoquinolin-4-yl)pyrimidin-2-yl]ethanesulfonamide] here?
Answer: < 500 nM

Question: What about the IC50 ([1]; Raji, Cell-MTS proliferation) of the same compound?
Answer: 500 to 5000 nM

Question: And the IC50 ([2]; HL-60, Cell-MTS proliferation)?
Answer: 500 to 5000 nM

Question: And the IC50 [3, 8]?
Answer: > 5000 nM

Question: Which results are given for `Cc1cc(-c2cc(NS(C)(=O)=O)ccc2OC2CCOCC2)cn(C)c1=O` [Example 439, N-[3-(1,5-dimethyl-6-oxopyridin-3-yl)-4-(oxan-4-yloxy)phenyl] methanesulfonamide]?
Answer: IC50 (BRD4(BD1); [4]): < 500 nM; IC50 [1, 5]: < 500 nM; IC50 [2, 6]: < 500 nM; IC50 [3, 7]: > 5000 nM

Question: Which results are given for `Cn1cc(-c2cc(S(C)(=O)=O)ccc2OC2CCOCC2)c2ccccc2c1=O` [Example 176, 2-methyl-4-[5-methylsulfonyl-2-(oxan-4-yloxy)phenyl]isoquinolin-1-one]?
Answer: IC50 (BRD4(BD1); [4]): < 500 nM; IC50 ([1]; Raji, Cell-MTS proliferation): < 500 nM; IC50 ([2]; HL-60, Cell-MTS proliferation): < 500 nM; IC50 [3, 8]: > 5000 nM

Question: What does the source list for `CCS(=O)(=O)Nc1ncc(OCC2CC2)c(-c2cn(C)c(=O)c3occc23)n1` [Example 264, N-[5-(cyclopropylmethoxy)-4-(6-methyl-7-oxofuro[2,3-c]pyridin-4-yl)pyrimidin-2-yl]ethanesulfonamide]?
Answer: IC50 (BRD4(BD1); [4]): < 500 nM; IC50 ([1]; Raji, Cell-MTS proliferation): < 500 nM; IC50 ([2]; HL-60, Cell-MTS proliferation): < 500 nM; IC50 [3, 8]: > 5000 nM

Question: With `Cn1cc(-c2cc(S(C)(=O)=O)ccc2Oc2ccc(F)cc2F)cc(F)c1=O` [Example 120, 5-[2-(2,4-difluorophenoxy)-5-methylsulfonylphenyl]-3-fluoro-1-methylpyridin-2-one] as the compound, how does the IC50 (BRD4(BD1); class symbols A/B/C) read?
Answer: 500 to 5000 nM

Question: And the IC50 [1, 9]?
Answer: > 5000 nM

Question: What about the IC50 [2, 10] of the same compound?
Answer: 500 to 5000 nM

Question: And the IC50 [3, 11]?
Answer: > 5000 nM

Question: For `Cn1cc(-c2cc(S(N)(=O)=O)ccc2Oc2ccc(F)cc2F)ccc1=O` [Example 118, 4-(2,4-difluorophenoxy)-3-(1-methyl-6-oxopyridin-3-yl)benzenesulfonamide], which IC50 (BRD4(BD1); class symbols A/B/C) is on record?
Answer: < 500 nM

Question: And the IC50 [1, 9]?
Answer: < 500 nM

Question: What about the IC50 [2, 10] of the same compound?
Answer: < 500 nM

Question: And the IC50 [3, 11]?
Answer: > 5000 nM

Question: `Cn1cc(-c2cc(S(C)(=O)=O)ccc2OCC2CC2)c2c(c1=O)CCCC2` [Example 217, 4-[2-(cyclopropylmethoxy)-5-methylsulfonylphenyl]-2-methyl-5,6,7,8-tetrahydroisoquinolin-1-one] was tested. Which IC50 (BRD4(BD1); [4]) did it give?
Answer: < 500 nM

Question: What about the IC50 ([1]; Raji, Cell-MTS proliferation) of the same compound?
Answer: < 500 nM

Question: And the IC50 ([2]; HL-60, Cell-MTS proliferation)?
Answer: < 500 nM

Question: And the IC50 [3, 8]?
Answer: > 5000 nM

Question: What does the source list for `Cn1cc(-c2cc(S(C)(=O)=O)ccc2OC2CCOC2)c2ccccc2c1=O` (stereo not shown) [Example 175, 2-methyl-4-[5-methylsulfonyl-2-(oxolan-3-yloxy)phenyl]isoquinolin-1-one]?
Answer: IC50 (BRD4(BD1); [4]): < 500 nM; IC50 ([1]; Raji, Cell-MTS proliferation): < 500 nM; IC50 ([2]; HL-60, Cell-MTS proliferation): < 500 nM; IC50 [3, 8]: > 5000 nM

Question: How did the IC50 (BRD4(BD1); [4]) turn out when `Cc1cc(-c2cc(OCc3ccccc3C#N)cc(S(C)(=O)=O)c2)cn(C)c1=O` [Example 334, 2-[[3-(1,5-dimethyl-6-oxopyridin-3-yl)-5-methylsulfonylphenoxy]methyl]benzonitrile] was run?
Answer: < 500 nM

Question: And the IC50 ([1]; Raji, Cell-MTS proliferation)?
Answer: 500 to 5000 nM

Question: What about the IC50 ([2]; HL-60, Cell-MTS proliferation) of the same compound?
Answer: < 500 nM

Question: What about the IC50 [3, 8] of the same compound?
Answer: > 5000 nM

Question: Which IC50 (BRD4(BD1); [4]) does the source give for `CCS(=O)(=O)c1cc(-c2cn(C)c(=O)c3ccccc23)c(OCC2CC2)cn1` [Example 207, 4-[5-(cyclopropylmethoxy)-2-ethylsulfonylpyridin-4-yl]-2-methylisoquinolin-1-one] here?
Answer: < 500 nM

Question: And the IC50 ([1]; Raji, Cell-MTS proliferation)?
Answer: < 500 nM

Question: What about the IC50 ([2]; HL-60, Cell-MTS proliferation) of the same compound?
Answer: < 500 nM

Question: And the IC50 [3, 8]?
Answer: > 5000 nM

Question: Which results are given for `Cc1cc(-c2cn(CS(C)(=O)=O)c(=O)cc2Oc2ccc(F)cc2F)cn(C)c1=O` [Example 385, 5-[4-(2,4-difluorophenoxy)-1-(methylsulfonylmethyl)-6-oxopyridin-3-yl]-1,3-dimethylpyridin-2-one]?
Answer: IC50 (BRD4(BD1); [4]): < 500 nM; IC50 [1, 5]: < 500 nM; IC50 [2, 6]: < 500 nM; IC50 [3, 7]: > 5000 nM

Question: For `Cn1cc(-c2cc(S(C)(=O)=O)ccc2O[C@H]2CC[C@H](N)CC2)c2ccccc2c1=O` [Example 182, 4-[2-(trans-4-aminocyclohexyl)oxy-5-methylsulfonylphenyl]-2-methylisoquinolin-1-one], which IC50 (BRD4(BD1); [4]) is on record?
Answer: < 500 nM

Question: What about the IC50 ([1]; Raji, Cell-MTS proliferation) of the same compound?
Answer: < 500 nM

Question: What about the IC50 ([2]; HL-60, Cell-MTS proliferation) of the same compound?
Answer: < 500 nM

Question: And the IC50 [3, 8]?
Answer: > 5000 nM

Question: Which results are given for `Cn1cc(-c2cc(S(C)(=O)=O)ccc2NC2CCOCC2)c2ccccc2c1=O` [Example 191, 2-methyl-4-[5-methylsulfonyl-2-(oxan-4-ylamino)phenyl]isoquinolin-1-one]?
Answer: IC50 (BRD4(BD1); [4]): < 500 nM; IC50 ([1]; Raji, Cell-MTS proliferation): < 500 nM; IC50 ([2]; HL-60, Cell-MTS proliferation): < 500 nM; IC50 [3, 8]: > 5000 nM

Question: Which results are given for `CCS(=O)(=O)Nc1cnc(Oc2ccc(F)cc2F)c(-c2cn(C)c(=O)c3occc23)c1` [Example 256, N-[6-(2,4-difluorophenoxy)-5-(6-methyl-7-oxofuro[2,3-c]pyridin-4-yl)pyridine-3-yl]ethanesulfonamide]?
Answer: IC50 (BRD4(BD1); [4]): < 500 nM; IC50 ([1]; Raji, Cell-MTS proliferation): < 500 nM; IC50 ([2]; HL-60, Cell-MTS proliferation): < 500 nM; IC50 [3, 8]: > 5000 nM

Question: `CCCOc1ccc(S(C)(=O)=O)cc1-c1cn(C)c(=O)c2ccccc12` [Example 178, 2-methyl-4-(5-methylsulfonyl-2-propoxyphenyl)isoquinolin-1-one] was tested. Which IC50 (BRD4(BD1); [4]) did it give?
Answer: < 500 nM

Question: And the IC50 ([1]; Raji, Cell-MTS proliferation)?
Answer: < 500 nM

Question: What about the IC50 ([2]; HL-60, Cell-MTS proliferation) of the same compound?
Answer: < 500 nM

Question: What about the IC50 [3, 8] of the same compound?
Answer: > 5000 nM

Question: With `Cn1cc(-c2cc(S(C)(=O)=O)ccc2OCC2CC2)c2ccccc2c1=O` [Example 89, 4-[2-(cyclopropylmethoxy)-5-methylsulfonylphenyl]-2-methylisoquinolin-1-one] as the compound, how does the IC50 (BRD4(BD1); class symbols A/B/C) read?
Answer: < 500 nM

Question: What about the IC50 [1, 9] of the same compound?
Answer: < 500 nM

Question: And the IC50 [2, 10]?
Answer: < 500 nM

Question: And the IC50 [3, 11]?
Answer: > 5000 nM

Question: Which results are given for `Cc1cccc(C)c1COc1cc(-c2cc(C)c(=O)n(C)c2)cc(S(C)(=O)=O)c1` [Example 331, 5-[3-[(2,6-dimethylphenyl)methoxy]-5-methylsulfonylphenyl]-1,3-dimethylpyridin-2-one]?
Answer: IC50 (BRD4(BD1); [4]): < 500 nM; IC50 ([1]; Raji, Cell-MTS proliferation): 500 to 5000 nM; IC50 ([2]; HL-60, Cell-MTS proliferation): < 500 nM; IC50 [3, 8]: > 5000 nM

Question: Which results are given for `CCS(=O)(=O)Cc1ccc(Oc2ccc(F)cc2F)c(-c2cc(OCC(F)(F)F)c(=O)n(C)c2)c1` [Example 292, 5-[2-(2,4-difluorophenoxy)-5-(ethylsulfonylmethyl)phenyl]-1-methyl-3-(2,2,2-trifluoroethoxy)pyridin-2-one]?
Answer: IC50 (BRD4(BD1); [4]): < 500 nM; IC50 ([1]; Raji, Cell-MTS proliferation): 500 to 5000 nM; IC50 ([2]; HL-60, Cell-MTS proliferation): < 500 nM; IC50 [3, 8]: > 5000 nM

Question: How did the IC50 (BRD4(BD1); [4]) turn out when `CCN(c1ncc(OCC2CC2)c(-c2cn(C)c(=O)c3ccccc23)n1)S(C)(=O)=O` [Example 161, N-[5-(cyclopropylmethoxy)-4-(2-methyl-1-oxoisoquinolin-4-yl)pyrimidin-2-yl]-N-ethylmethanesulfonamide] was run?
Answer: < 500 nM

Question: And the IC50 ([1]; Raji, Cell-MTS proliferation)?
Answer: < 500 nM

Question: And the IC50 ([2]; HL-60, Cell-MTS proliferation)?
Answer: < 500 nM

Question: What about the IC50 [3, 8] of the same compound?
Answer: > 5000 nM

Question: With `CCOc1ccc(S(C)(=O)=O)cc1-c1cn(C)c(=O)c2ccccc12` [Example 177, 4-(2-ethoxy-5-methylsulfonylphenyl)-2-methylisoquinolin-1-one] as the compound, how does the IC50 (BRD4(BD1); [4]) read?
Answer: < 500 nM

Question: And the IC50 ([1]; Raji, Cell-MTS proliferation)?
Answer: 500 to 5000 nM

Question: And the IC50 ([2]; HL-60, Cell-MTS proliferation)?
Answer: < 500 nM

Question: And the IC50 [3, 8]?
Answer: > 5000 nM
